Laboratory results from US20230218746A1, “COMPOSITIONS AND METHODS RELATING TO ANTIVIRAL THERAPEUTICS” (priority 2020, published 2023).

Columns and labels:
COVID-19 = conditions: hospitalized COVID-19 patients; cited from earlier work
SARS-CoV-2 mimics = experiment: In vivo clearance of the SARS-CoV-2 mimicking virus by nanodecoys in mice; design: species or system CD1 mice; conditions: mouse

Compound	effect on overall mortality, necessity for mechanical ventilation, and length of hospital stay (COVID-19)	amounts of SARS-CoV-2 mimics in lungs (ex vivo imaging) (SARS-CoV-2 mimics)
CCN(CCO)CCCC(C)Nc1ccnc2cc(Cl)ccc12 (stereo not drawn) [hydroxychloroquine]	little or no effect	
lopinavir/ritonavir	little or no effect	
rACE2: free recombinant ACE2 protein, same amount of ACE2 as on the nanodecoys		ineffective
